Experiment [1] has as its target T1, Mitogen-activated protein kinase kinase kinase 2 (Homo sapiens) (UniProt Q9Y2U5).
T1 sequence (whole entry): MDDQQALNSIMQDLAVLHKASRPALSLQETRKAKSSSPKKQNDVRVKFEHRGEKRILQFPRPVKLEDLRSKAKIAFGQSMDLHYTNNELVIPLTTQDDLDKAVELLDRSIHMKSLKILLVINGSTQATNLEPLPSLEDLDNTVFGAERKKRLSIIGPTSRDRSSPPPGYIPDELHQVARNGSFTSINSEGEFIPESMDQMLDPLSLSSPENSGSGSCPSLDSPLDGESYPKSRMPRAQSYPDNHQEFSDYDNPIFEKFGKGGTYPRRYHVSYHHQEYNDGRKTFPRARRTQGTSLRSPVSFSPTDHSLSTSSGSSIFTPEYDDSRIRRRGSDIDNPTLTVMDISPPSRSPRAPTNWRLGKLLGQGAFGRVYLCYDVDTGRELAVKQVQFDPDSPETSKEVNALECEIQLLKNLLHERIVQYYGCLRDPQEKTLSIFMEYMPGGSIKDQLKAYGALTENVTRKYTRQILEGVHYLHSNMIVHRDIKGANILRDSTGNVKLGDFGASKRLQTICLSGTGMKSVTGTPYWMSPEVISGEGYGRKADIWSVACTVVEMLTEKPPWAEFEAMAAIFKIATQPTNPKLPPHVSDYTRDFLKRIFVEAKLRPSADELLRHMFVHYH
Description: Selectivity interaction (ActivX KiNativ screen (ex vivo kinase selectivity in human PBMCs)) EUB0001619a MAP3K2. The class given is cell-based. Conditions: PBMC, at 1 µM.

Experiment [2] deals with T2, Histone-lysine N-methyltransferase EHMT2 (Homo sapiens) (UniProt Q96KQ7).
T2 sequence (whole entry): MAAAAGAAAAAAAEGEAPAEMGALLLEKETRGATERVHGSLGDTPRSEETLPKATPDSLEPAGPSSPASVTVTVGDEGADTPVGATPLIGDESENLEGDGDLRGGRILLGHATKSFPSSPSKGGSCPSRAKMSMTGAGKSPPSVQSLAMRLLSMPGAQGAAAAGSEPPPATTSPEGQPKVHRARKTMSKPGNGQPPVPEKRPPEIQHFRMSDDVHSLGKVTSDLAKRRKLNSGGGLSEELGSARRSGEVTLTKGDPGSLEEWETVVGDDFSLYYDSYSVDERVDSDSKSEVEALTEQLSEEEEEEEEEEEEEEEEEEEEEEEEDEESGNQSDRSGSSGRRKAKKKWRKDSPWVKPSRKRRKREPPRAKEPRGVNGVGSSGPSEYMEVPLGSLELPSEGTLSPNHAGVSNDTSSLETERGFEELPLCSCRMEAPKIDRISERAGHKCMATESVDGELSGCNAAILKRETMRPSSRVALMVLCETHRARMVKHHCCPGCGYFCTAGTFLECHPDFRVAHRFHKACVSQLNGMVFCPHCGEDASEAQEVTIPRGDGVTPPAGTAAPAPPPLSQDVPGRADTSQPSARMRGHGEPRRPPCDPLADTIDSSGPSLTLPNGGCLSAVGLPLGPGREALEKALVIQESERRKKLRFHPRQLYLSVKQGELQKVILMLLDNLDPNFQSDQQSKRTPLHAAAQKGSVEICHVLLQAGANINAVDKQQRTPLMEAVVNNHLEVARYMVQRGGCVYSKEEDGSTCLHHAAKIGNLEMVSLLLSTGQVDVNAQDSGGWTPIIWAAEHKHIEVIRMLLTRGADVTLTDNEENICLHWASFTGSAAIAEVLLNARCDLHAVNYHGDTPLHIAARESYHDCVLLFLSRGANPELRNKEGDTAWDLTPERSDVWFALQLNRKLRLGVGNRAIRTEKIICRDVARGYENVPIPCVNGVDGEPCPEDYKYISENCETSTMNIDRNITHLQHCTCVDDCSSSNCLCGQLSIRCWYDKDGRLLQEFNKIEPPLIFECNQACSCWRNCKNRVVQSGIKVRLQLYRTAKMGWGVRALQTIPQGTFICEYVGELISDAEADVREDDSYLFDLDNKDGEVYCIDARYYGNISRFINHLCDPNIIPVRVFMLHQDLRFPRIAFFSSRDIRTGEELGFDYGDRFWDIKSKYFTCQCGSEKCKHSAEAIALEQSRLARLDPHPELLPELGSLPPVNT
Conditions: at 10 µM.

Experiment [3] addresses Histone-lysine N-methyltransferase SETD2 (Homo sapiens) (UniProt Q9BYW2). Conditions: at 1 µM.
Experiment [4] deals with Tyrosine-protein kinase ABL2 (Homo sapiens, UniProt P42684). Description: Selectivity interaction (ProQinase) EUB0000171b ABL2.
Experiment [5] deals with Serine/threonine-protein kinase SIK2 (Homo sapiens) (UniProt Q9H0K1). Kind of experiment: Selectivity interaction (ProQinase) EUB0000171b SIK2.

Molecules are shown by their SMILES.

Among the data in ChEMBL document CHEMBL5465560, “Selectivity Literature for EUbOPEN Chemogenomic Library” (2024) are % of inhibition, % activity and % of control values, retold here.

Sequence of Serine/threonine-protein kinase SIK2 (Homo sapiens) (Q9H0K1 whole entry, looked up): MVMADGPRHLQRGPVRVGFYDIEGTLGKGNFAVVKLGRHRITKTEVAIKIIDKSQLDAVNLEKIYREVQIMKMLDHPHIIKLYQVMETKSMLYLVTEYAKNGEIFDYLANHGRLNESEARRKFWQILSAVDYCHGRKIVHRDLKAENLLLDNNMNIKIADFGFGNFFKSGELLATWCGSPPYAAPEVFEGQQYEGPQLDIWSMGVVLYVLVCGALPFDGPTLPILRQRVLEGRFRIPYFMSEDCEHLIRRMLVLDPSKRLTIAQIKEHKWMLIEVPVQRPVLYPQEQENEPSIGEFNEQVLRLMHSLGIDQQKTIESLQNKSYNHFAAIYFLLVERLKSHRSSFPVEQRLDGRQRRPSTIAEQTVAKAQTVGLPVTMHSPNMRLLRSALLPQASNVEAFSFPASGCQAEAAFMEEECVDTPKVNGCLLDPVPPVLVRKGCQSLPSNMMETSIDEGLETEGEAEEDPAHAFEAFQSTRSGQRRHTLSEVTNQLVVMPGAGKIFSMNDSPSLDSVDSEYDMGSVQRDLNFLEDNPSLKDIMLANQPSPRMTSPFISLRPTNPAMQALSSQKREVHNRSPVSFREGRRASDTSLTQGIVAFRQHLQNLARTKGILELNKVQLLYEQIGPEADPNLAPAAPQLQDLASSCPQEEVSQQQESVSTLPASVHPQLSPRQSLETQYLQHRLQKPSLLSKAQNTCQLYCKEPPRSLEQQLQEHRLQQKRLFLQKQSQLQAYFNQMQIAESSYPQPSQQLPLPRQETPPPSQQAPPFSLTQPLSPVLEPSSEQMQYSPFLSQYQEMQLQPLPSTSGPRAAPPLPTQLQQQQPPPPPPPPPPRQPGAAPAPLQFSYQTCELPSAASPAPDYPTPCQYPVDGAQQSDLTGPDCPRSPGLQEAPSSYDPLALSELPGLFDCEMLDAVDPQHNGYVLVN
Sequence of Tyrosine-protein kinase ABL2 (P42684 whole entry): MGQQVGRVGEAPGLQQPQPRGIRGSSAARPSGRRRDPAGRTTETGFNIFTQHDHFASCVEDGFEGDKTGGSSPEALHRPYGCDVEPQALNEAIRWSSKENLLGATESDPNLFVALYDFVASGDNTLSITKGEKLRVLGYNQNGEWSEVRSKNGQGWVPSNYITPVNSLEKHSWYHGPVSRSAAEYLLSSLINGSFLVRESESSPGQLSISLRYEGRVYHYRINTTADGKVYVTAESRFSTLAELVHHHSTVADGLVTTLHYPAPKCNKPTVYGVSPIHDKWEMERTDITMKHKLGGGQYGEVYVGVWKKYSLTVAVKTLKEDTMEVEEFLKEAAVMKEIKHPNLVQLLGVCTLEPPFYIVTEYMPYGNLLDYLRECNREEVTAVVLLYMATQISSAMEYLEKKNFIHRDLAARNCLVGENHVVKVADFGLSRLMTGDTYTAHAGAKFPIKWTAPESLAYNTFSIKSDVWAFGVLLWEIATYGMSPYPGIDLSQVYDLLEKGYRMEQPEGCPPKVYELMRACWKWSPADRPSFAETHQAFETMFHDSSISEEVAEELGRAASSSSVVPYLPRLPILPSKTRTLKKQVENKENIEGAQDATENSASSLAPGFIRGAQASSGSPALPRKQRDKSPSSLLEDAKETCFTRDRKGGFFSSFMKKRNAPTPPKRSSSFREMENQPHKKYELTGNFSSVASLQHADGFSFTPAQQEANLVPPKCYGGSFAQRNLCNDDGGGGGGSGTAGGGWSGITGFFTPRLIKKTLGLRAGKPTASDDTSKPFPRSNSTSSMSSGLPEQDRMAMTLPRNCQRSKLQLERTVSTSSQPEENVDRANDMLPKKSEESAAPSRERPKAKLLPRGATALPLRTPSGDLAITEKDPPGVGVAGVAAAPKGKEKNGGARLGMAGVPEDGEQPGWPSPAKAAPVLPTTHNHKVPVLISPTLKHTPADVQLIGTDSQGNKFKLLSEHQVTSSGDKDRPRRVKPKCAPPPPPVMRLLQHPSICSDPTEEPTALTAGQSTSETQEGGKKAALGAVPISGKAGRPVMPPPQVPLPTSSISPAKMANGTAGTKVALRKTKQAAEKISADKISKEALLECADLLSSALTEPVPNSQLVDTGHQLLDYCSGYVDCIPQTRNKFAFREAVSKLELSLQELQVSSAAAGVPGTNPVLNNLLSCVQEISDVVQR
Sequence of Histone-lysine N-methyltransferase SETD2 (Homo sapiens) (Q9BYW2 whole entry): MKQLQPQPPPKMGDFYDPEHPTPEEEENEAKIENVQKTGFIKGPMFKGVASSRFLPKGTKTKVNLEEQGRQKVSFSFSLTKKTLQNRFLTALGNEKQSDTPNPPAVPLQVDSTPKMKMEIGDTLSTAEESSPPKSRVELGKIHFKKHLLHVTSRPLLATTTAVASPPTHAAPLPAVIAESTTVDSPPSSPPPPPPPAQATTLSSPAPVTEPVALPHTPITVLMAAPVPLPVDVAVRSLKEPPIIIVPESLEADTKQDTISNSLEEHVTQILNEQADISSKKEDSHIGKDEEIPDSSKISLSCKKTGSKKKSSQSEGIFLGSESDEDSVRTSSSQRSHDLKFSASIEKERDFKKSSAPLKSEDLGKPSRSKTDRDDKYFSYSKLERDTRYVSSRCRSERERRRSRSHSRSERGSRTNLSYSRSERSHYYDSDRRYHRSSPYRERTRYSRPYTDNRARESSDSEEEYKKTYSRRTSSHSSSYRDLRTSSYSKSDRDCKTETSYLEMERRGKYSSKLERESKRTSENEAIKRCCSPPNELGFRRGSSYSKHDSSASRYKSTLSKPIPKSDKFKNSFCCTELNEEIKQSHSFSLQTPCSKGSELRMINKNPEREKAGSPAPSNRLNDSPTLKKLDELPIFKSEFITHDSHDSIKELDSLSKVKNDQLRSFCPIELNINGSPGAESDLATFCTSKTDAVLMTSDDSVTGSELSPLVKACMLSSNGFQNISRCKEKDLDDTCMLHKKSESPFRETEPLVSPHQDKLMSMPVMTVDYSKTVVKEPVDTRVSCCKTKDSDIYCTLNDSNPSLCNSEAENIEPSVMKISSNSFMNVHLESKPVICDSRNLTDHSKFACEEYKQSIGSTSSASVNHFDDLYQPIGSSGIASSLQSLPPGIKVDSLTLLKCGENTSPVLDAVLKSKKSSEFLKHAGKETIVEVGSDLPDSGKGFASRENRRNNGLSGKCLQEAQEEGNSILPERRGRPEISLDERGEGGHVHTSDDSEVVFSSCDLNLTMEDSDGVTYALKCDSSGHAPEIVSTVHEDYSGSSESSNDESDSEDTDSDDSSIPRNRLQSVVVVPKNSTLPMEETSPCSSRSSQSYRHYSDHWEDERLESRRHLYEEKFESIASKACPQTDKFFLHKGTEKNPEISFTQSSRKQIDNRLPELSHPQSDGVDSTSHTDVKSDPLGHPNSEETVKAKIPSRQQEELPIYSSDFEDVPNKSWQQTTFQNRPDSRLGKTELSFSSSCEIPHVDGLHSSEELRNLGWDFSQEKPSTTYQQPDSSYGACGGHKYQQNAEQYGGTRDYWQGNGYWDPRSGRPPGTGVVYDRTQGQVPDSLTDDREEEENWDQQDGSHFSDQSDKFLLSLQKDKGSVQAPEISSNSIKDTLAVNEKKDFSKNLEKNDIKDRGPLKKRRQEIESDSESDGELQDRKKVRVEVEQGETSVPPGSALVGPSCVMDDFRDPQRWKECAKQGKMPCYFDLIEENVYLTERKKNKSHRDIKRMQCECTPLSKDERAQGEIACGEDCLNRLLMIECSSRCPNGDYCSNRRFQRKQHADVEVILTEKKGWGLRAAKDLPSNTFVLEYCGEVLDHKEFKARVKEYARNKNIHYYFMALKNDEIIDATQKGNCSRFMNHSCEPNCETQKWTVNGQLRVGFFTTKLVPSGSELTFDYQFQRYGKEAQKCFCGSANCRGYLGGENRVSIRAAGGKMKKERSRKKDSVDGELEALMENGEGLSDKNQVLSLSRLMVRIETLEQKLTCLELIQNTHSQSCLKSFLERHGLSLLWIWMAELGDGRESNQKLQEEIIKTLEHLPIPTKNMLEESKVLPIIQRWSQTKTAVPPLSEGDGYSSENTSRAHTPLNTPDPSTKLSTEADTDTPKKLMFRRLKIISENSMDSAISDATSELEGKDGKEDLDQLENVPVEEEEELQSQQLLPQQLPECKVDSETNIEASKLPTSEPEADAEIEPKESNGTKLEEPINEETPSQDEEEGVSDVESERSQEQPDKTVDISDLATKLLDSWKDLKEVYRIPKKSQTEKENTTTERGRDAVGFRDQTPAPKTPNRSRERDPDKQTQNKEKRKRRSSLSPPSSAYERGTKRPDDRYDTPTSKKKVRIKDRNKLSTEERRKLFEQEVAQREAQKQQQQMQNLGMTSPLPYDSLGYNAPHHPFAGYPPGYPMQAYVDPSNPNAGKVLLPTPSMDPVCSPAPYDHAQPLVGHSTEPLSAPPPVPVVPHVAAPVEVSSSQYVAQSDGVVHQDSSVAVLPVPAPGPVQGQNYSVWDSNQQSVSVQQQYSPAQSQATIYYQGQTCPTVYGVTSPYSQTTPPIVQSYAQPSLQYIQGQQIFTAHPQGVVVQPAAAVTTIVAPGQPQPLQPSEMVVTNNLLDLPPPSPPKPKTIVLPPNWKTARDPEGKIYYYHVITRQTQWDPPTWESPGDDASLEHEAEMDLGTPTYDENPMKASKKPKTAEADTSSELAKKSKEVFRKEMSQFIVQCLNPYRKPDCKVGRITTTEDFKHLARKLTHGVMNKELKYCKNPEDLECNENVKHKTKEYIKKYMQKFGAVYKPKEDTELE

For `N#Cc1cccc(-c2c[nH]c3ncnc(N4CCOCC4)c23)c1`, in experiment [1], the % of inhibition came to 15%.
`CNCCN1CCC(c2cc(CN(C)C(=O)c3cccc(Oc4ccccc4)c3)ccn2)CC1`: the % activity in experiment [2] and in experiment [3] was > 90% each time.
As to `C=CC(=O)Nc1cccc(C(=O)Nc2ccc(Nc3cc(-c4[nH]c(SC)nc4C)ccn3)cc2)c1`, the % of control in experiment [4] (at 1 µM) was determined as 74%; in experiment [4] (at 5 µM), 84%; in experiment [5] (at 1 µM), 108%; in experiment [5] (at 5 µM) it was 90%.
